# Measured values reported in patent US20100041089A1, “IMPROVED METHOD FOR DETECTING CHEMICAL […]” (priority 2006, published 2010).
# Test system: yeast genes (expressed mRNA)
# Assay: DNA chip measurement of expressed mRNA of yeast genes after culture with a toxic chemical substance
# Assay type: cell-based, Saccharomyces cerevisiae S288C
# Conditions: for level of expressed mRNA in the presence of chemical substance / level in the absence of chemical substance: cultured two hours with the chemical substance; for The level of expressed mRNA in the presence of chemical substance/The level of expressed mRNA in the absence of chemical substance: cultured two hours with substance
# Procedure, shortened: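 Expression is given as treated/untreated fluorescence ratio on a whole-genome yeast DNA chip, a ratio of two or more being significant. Log-phase S288C cultures in YPD at 25 °C received the chemical for 2 h at a dose that slows growth without killing. mRNA was reverse-transcribed with Cy3- or Cy5-dUTP.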
smiles,measurement,setting,value
"[Cl][Cd][Cl] [(2), CdCl2]",level of expressed mRNA in the presence of chemical substance / level in the absence of chemical substance,yeast gene YJL097W,1.1
same,The level of expressed mRNA in the presence of chemical substance/The level of expressed mRNA in the absence of chemical substance,yeast gene YJL151C,2.4
same,The level of expressed mRNA in the presence of chemical substance/The level of expressed mRNA in the absence of chemical substance,yeast gene YJL152W,1.5
same,The level of expressed mRNA in the presence of chemical substance/The level of expressed mRNA in the absence of chemical substance,yeast gene YJL161W,2.2
same,The level of expressed mRNA in the presence of chemical substance/The level of expressed mRNA in the absence of chemical substance,yeast gene YJL171C,0.7
same,The level of expressed mRNA in the presence of chemical substance/The level of expressed mRNA in the absence of chemical substance,yeast gene YJR008W,1.5
same,level of expressed mRNA in the presence of chemical substance / level in the absence of chemical substance,yeast gene YJR030C,4.4
same,The level of expressed mRNA in the presence of chemical substance/The level of expressed mRNA in the absence of chemical substance,yeast gene YJR054W,0.9
same,level of expressed mRNA in the presence of chemical substance / level in the absence of chemical substance,yeast gene YKL051W,1.1
same,The level of expressed mRNA in the presence of chemical substance/The level of expressed mRNA in the absence of chemical substance,yeast gene YKL071W,3.8
same,The level of expressed mRNA in the presence of chemical substance/The level of expressed mRNA in the absence of chemical substance,yeast gene YKL086W,1.1
same,level of expressed mRNA in the presence of chemical substance / level in the absence of chemical substance,yeast gene YKL097C,1.6
same,level of expressed mRNA in the presence of chemical substance / level in the absence of chemical substance,yeast gene YKL100C,1.1
same,The level of expressed mRNA in the presence of chemical substance/The level of expressed mRNA in the absence of chemical substance,yeast gene YKL151C,3.1
same,The level of expressed mRNA in the presence of chemical substance/The level of expressed mRNA in the absence of chemical substance,yeast gene YKL153W,1.4
same,The level of expressed mRNA in the presence of chemical substance/The level of expressed mRNA in the absence of chemical substance,yeast gene YKL195W,0.5
same,level of expressed mRNA in the presence of chemical substance / level in the absence of chemical substance,yeast gene YKR040C,3.7
same,The level of expressed mRNA in the presence of chemical substance/The level of expressed mRNA in the absence of chemical substance,yeast gene YKR091W,2.3
same,The level of expressed mRNA in the presence of chemical substance/The level of expressed mRNA in the absence of chemical substance,yeast gene YLR054C,1.5
same,The level of expressed mRNA in the presence of chemical substance/The level of expressed mRNA in the absence of chemical substance,yeast gene YLR149C,1.9
same,The level of expressed mRNA in the presence of chemical substance/The level of expressed mRNA in the absence of chemical substance,yeast gene YLR152C,1.3
same,The level of expressed mRNA in the presence of chemical substance/The level of expressed mRNA in the absence of chemical substance,yeast gene YLR194C,2.2
same,level of expressed mRNA in the presence of chemical substance / level in the absence of chemical substance,yeast gene YLR226W,1.8
same,The level of expressed mRNA in the presence of chemical substance/The level of expressed mRNA in the absence of chemical substance,yeast gene YLR324W,1.2
same,level of expressed mRNA in the presence of chemical substance / level in the absence of chemical substance,yeast gene YLR338W,1.6
same,The level of expressed mRNA in the presence of chemical substance/The level of expressed mRNA in the absence of chemical substance,yeast gene YLR350W,1.9
same,The level of expressed mRNA in the presence of chemical substance/The level of expressed mRNA in the absence of chemical substance,yeast gene YLR387C,1.6
same,level of expressed mRNA in the presence of chemical substance / level in the absence of chemical substance,yeast gene YLR392C,0.9
same,level of expressed mRNA in the presence of chemical substance / level in the absence of chemical substance,yeast gene YLR415C,2.4
same,level of expressed mRNA in the presence of chemical substance / level in the absence of chemical substance,yeast gene YLR427W,1.0
same,The level of expressed mRNA in the presence of chemical substance/The level of expressed mRNA in the absence of chemical substance,yeast gene YLR460C,2.1
same,level of expressed mRNA in the presence of chemical substance / level in the absence of chemical substance,yeast gene YML013W,1.0
same,level of expressed mRNA in the presence of chemical substance / level in the absence of chemical substance,yeast gene YML029W,1.5
same,level of expressed mRNA in the presence of chemical substance / level in the absence of chemical substance,yeast gene YML041C,1.0
same,level of expressed mRNA in the presence of chemical substance / level in the absence of chemical substance,yeast gene YML079W,1.7
same,The level of expressed mRNA in the presence of chemical substance/The level of expressed mRNA in the absence of chemical substance,yeast gene YML117W,2.2
same,The level of expressed mRNA in the presence of chemical substance/The level of expressed mRNA in the absence of chemical substance,yeast gene YMR009W,1.9
same,The level of expressed mRNA in the presence of chemical substance/The level of expressed mRNA in the absence of chemical substance,yeast gene YMR067C,0.9
same,level of expressed mRNA in the presence of chemical substance / level in the absence of chemical substance,yeast gene YMR068W,0.7
same,level of expressed mRNA in the presence of chemical substance / level in the absence of chemical substance,yeast gene YMR071C,2.0
same,The level of expressed mRNA in the presence of chemical substance/The level of expressed mRNA in the absence of chemical substance,yeast gene YMR090W,9.5
same,The level of expressed mRNA in the presence of chemical substance/The level of expressed mRNA in the absence of chemical substance,yeast gene YMR095C,2.0
same,The level of expressed mRNA in the presence of chemical substance/The level of expressed mRNA in the absence of chemical substance,yeast gene YMR097C,1.0
same,The level of expressed mRNA in the presence of chemical substance/The level of expressed mRNA in the absence of chemical substance,yeast gene YMR102C,2.9
same,The level of expressed mRNA in the presence of chemical substance/The level of expressed mRNA in the absence of chemical substance,yeast gene YMR107W,3.9
same,level of expressed mRNA in the presence of chemical substance / level in the absence of chemical substance,yeast gene YMR160W,1.3
same,The level of expressed mRNA in the presence of chemical substance/The level of expressed mRNA in the absence of chemical substance,yeast gene YMR180C,0.9
same,The level of expressed mRNA in the presence of chemical substance/The level of expressed mRNA in the absence of chemical substance,yeast gene YMR184W,5.4
same,The level of expressed mRNA in the presence of chemical substance/The level of expressed mRNA in the absence of chemical substance,yeast gene YMR191W,2.4
same,The level of expressed mRNA in the presence of chemical substance/The level of expressed mRNA in the absence of chemical substance,yeast gene YMR295C,1.0
same,The level of expressed mRNA in the presence of chemical substance/The level of expressed mRNA in the absence of chemical substance,yeast gene YMR316W,2.9
same,level of expressed mRNA in the presence of chemical substance / level in the absence of chemical substance,yeast gene YNL026W,1.0
same,The level of expressed mRNA in the presence of chemical substance/The level of expressed mRNA in the absence of chemical substance,yeast gene YNL044W,0.9
